# Test results from patent US20170333591A9, “ABSORBENT ARTICLE COMPRISING MALODOR REDUCTION COMPOSITIONS” (The Procter & Gamble Company, priority 2014, published 2017).
# Test: Log of liquid dish neat product liquid-air partition coefficient
# Assay type: physicochemical
# Details: for Log of liquid dish neat product liquid-air partition coefficient (Comment Code): code letters K/L of the Comment Code
compound,measurement,value
C=C[C@](C)(O)CCC=C(C)C [Material 888],Comment Code: Log of liquid dish neat product liquid-air partition coefficient,K (Log of liquid dish neat product liquid-air partition coefficient greater than or equal to 7)
CC(=O)OC(C)CC/C=C(\C)CCC=C(C)C (stereo not shown) [Material 890],Log of liquid dish neat product liquid-air partition coefficient (Comment Code),K (Log of liquid dish neat product liquid-air partition coefficient greater than or equal to 7)
C/C(=C/C#N)CCc1ccccc1 [Material 892],Log of liquid dish neat product liquid-air partition coefficient (Comment Code),K (Log of liquid dish neat product liquid-air partition coefficient greater than or equal to 7)
CC1CCC2(O1)C(C)(C)CCCC2(C)O (stereo not shown) [Material 893],Log of liquid dish neat product liquid-air partition coefficient (Comment Code),K (Log of liquid dish neat product liquid-air partition coefficient greater than or equal to 7)
C/C(=C\C#N)CCc1ccccc1 [Material 894],Log of liquid dish neat product liquid-air partition coefficient (Comment Code),K (Log of liquid dish neat product liquid-air partition coefficient greater than or equal to 7)
CC(=CCC1CC=C(C)C1(C)C)CO (stereo not shown) [Material 908],Log of liquid dish neat product liquid-air partition coefficient (Comment Code),K (Log of liquid dish neat product liquid-air partition coefficient greater than or equal to 7)
CC1=CC2CC(C3OCCO3)C1CC2C(C)C (stereo not shown) [Material 912],Log of liquid dish neat product liquid-air partition coefficient (Comment Code),K (Log of liquid dish neat product liquid-air partition coefficient greater than or equal to 7)
C=C1CCCC(C)(C)C1C=C(C)C(C)=O (stereo not shown) [Material 913],Log of liquid dish neat product liquid-air partition coefficient (Comment Code),K (Log of liquid dish neat product liquid-air partition coefficient greater than or equal to 7)
CC(C)c1cccc(C(C)CC=O)c1 (stereo not shown) [Material 914],Log of liquid dish neat product liquid-air partition coefficient (Comment Code),K (Log of liquid dish neat product liquid-air partition coefficient greater than or equal to 7)
C=CC(C)(CCC=C(C)C)OC(C)OCC (stereo not shown) [Material 916],Log of liquid dish neat product liquid-air partition coefficient (Comment Code),K (Log of liquid dish neat product liquid-air partition coefficient greater than or equal to 7)
C=CCOC(=O)COC1CCCCC1 [Material 918],Comment Code: Log of liquid dish neat product liquid-air partition coefficient,K (Log of liquid dish neat product liquid-air partition coefficient greater than or equal to 7)
CCC(=O)OC1CC2CC1C1CC=CC21 (stereo not shown) [Material 919],Comment Code: Log of liquid dish neat product liquid-air partition coefficient,K (Log of liquid dish neat product liquid-air partition coefficient greater than or equal to 7)
same,Log of liquid dish neat product liquid-air partition coefficient (Comment Code),K (Log of liquid dish neat product liquid-air partition coefficient greater than or equal to 7)
CC1=C2CCC(C)C2CC(C(C)(C)O)CC1 (stereo not shown) [Material 920],Log of liquid dish neat product liquid-air partition coefficient (Comment Code),K (Log of liquid dish neat product liquid-air partition coefficient greater than or equal to 7)
CC12CCCC(C)(CC1)C2=NO [Material 921],Comment Code: Log of liquid dish neat product liquid-air partition coefficient,K (Log of liquid dish neat product liquid-air partition coefficient greater than or equal to 7)
C/C=C/c1cc(OC)c(OC)cc1OC [Material 924],Log of liquid dish neat product liquid-air partition coefficient (Comment Code),K (Log of liquid dish neat product liquid-air partition coefficient greater than or equal to 7)
CC(C)(C=O)CC1=CCC2CC1C2(C)C (stereo not shown) [Material 925],Log of liquid dish neat product liquid-air partition coefficient (Comment Code),K (Log of liquid dish neat product liquid-air partition coefficient greater than or equal to 7)
CC(=O)c1cc2c(cc1C)C(C)(C)C(C)C2(C)C (stereo not shown) [Material 927],Comment Code: Log of liquid dish neat product liquid-air partition coefficient,K (Log of liquid dish neat product liquid-air partition coefficient greater than or equal to 7)
same,Log of liquid dish neat product liquid-air partition coefficient (Comment Code),K (Log of liquid dish neat product liquid-air partition coefficient greater than or equal to 7)
Cc1cccc(CCO)c1 [Material 928],Log of liquid dish neat product liquid-air partition coefficient (Comment Code),K (Log of liquid dish neat product liquid-air partition coefficient greater than or equal to 7)
CCC=CCC=CCCO [Material 929],Log of liquid dish neat product liquid-air partition coefficient (Comment Code),K (Log of liquid dish neat product liquid-air partition coefficient greater than or equal to 7)
CCCCCCCCCCC=CC=O [Material 930],Log of liquid dish neat product liquid-air partition coefficient (Comment Code),K (Log of liquid dish neat product liquid-air partition coefficient greater than or equal to 7)
C=C(OC(C)=O)c1ccccc1 [Material 931],Comment Code: Log of liquid dish neat product liquid-air partition coefficient,K (Log of liquid dish neat product liquid-air partition coefficient greater than or equal to 7)
CC1CCC2(O)C(C)(C)C3CCC2(C)C1C3 (stereo not shown) [Material 933],Comment Code: Log of liquid dish neat product liquid-air partition coefficient,K (Log of liquid dish neat product liquid-air partition coefficient greater than or equal to 7)
same,Log of liquid dish neat product liquid-air partition coefficient (Comment Code),K (Log of liquid dish neat product liquid-air partition coefficient greater than or equal to 7)
CCCCCC(=O)Oc1ccc(C)cc1 [Material 939],Log of liquid dish neat product liquid-air partition coefficient (Comment Code),K (Log of liquid dish neat product liquid-air partition coefficient greater than or equal to 7)
CCCCC/C=C/C=C\C(=O)OCC [Material 942],Log of liquid dish neat product liquid-air partition coefficient (Comment Code),K (Log of liquid dish neat product liquid-air partition coefficient greater than or equal to 7)
N#CC(=C1CCCCC1)c1ccccc1 [Material 945],Log of liquid dish neat product liquid-air partition coefficient (Comment Code),K (Log of liquid dish neat product liquid-air partition coefficient greater than or equal to 7)
C=C(C)C1CC=C(C=O)CC1 (stereo not shown) [Material 946],Log of liquid dish neat product liquid-air partition coefficient (Comment Code),K (Log of liquid dish neat product liquid-air partition coefficient greater than or equal to 7)
C=C(C)C1CC=C(COC(C)=O)CC1 (stereo not shown) [Material 947],Log of liquid dish neat product liquid-air partition coefficient (Comment Code),K (Log of liquid dish neat product liquid-air partition coefficient greater than or equal to 7)
C=C(C)C1CC=C(CO)CC1 (stereo not shown) [Material 948],Log of liquid dish neat product liquid-air partition coefficient (Comment Code),K (Log of liquid dish neat product liquid-air partition coefficient greater than or equal to 7)
CCCCC/C=C/C=C\C(=O)OCC [Material 951],Log of liquid dish neat product liquid-air partition coefficient (Comment Code),K (Log of liquid dish neat product liquid-air partition coefficient greater than or equal to 7)
c1ccc(CCOC2CCCCC2)cc1 [Material 953],Log of liquid dish neat product liquid-air partition coefficient (Comment Code),K (Log of liquid dish neat product liquid-air partition coefficient greater than or equal to 7)
CCC(C)C(=O)OCCc1ccccc1 (stereo not shown) [Material 954],Log of liquid dish neat product liquid-air partition coefficient (Comment Code),K (Log of liquid dish neat product liquid-air partition coefficient greater than or equal to 7)
OCCc1ccccc1 [Material 955],Log of liquid dish neat product liquid-air partition coefficient (Comment Code),K (Log of liquid dish neat product liquid-air partition coefficient greater than or equal to 7)
O=COCCc1ccccc1 [Material 956],Comment Code: Log of liquid dish neat product liquid-air partition coefficient,K (Log of liquid dish neat product liquid-air partition coefficient greater than or equal to 7)
CC(C)C(=O)OCCc1ccccc1 [Material 958],Comment Code: Log of liquid dish neat product liquid-air partition coefficient,K (Log of liquid dish neat product liquid-air partition coefficient greater than or equal to 7)
C/C=C(\C)C(=O)OCCc1ccccc1 [Material 960],Comment Code: Log of liquid dish neat product liquid-air partition coefficient,K (Log of liquid dish neat product liquid-air partition coefficient greater than or equal to 7)
O=C(Oc1ccccc1)c1ccccc1 [Material 965],Log of liquid dish neat product liquid-air partition coefficient (Comment Code),K (Log of liquid dish neat product liquid-air partition coefficient greater than or equal to 7)
C=C(C)C(=O)OCCc1ccccc1 [Material 971],Comment Code: Log of liquid dish neat product liquid-air partition coefficient,K (Log of liquid dish neat product liquid-air partition coefficient greater than or equal to 7)
CC(C)c1ccc(CC=O)cc1 [Material 977],Comment Code: Log of liquid dish neat product liquid-air partition coefficient,K (Log of liquid dish neat product liquid-air partition coefficient greater than or equal to 7)
CC(C)(C)C(=O)OC1CC2CC1C1CC=CC21 (stereo not shown) [Material 978],Comment Code: Log of liquid dish neat product liquid-air partition coefficient,K (Log of liquid dish neat product liquid-air partition coefficient greater than or equal to 7)
same,Log of liquid dish neat product liquid-air partition coefficient (Comment Code),K (Log of liquid dish neat product liquid-air partition coefficient greater than or equal to 7)
CC(C)C1=CCC(C)(O)CC1 (stereo not shown) [Material 982],Log of liquid dish neat product liquid-air partition coefficient (Comment Code),K (Log of liquid dish neat product liquid-air partition coefficient greater than or equal to 7)
COc1ccc(CC(C)=O)cc1 [Material 983],Comment Code: Log of liquid dish neat product liquid-air partition coefficient,K (Log of liquid dish neat product liquid-air partition coefficient greater than or equal to 7)
CC1=CCC(/C=C/C(C)(C)C(C)O)C1(C)C (stereo not shown) [Material 985],Log of liquid dish neat product liquid-air partition coefficient (Comment Code),K (Log of liquid dish neat product liquid-air partition coefficient greater than or equal to 7)
CC(C)=CCCC1=CCC(C)(C=O)CC1 (stereo not shown) [Material 988],Log of liquid dish neat product liquid-air partition coefficient (Comment Code),K (Log of liquid dish neat product liquid-air partition coefficient greater than or equal to 7)
CC(C)(C)c1ccc(CC=O)cc1 [Material 994],Comment Code: Log of liquid dish neat product liquid-air partition coefficient,K (Log of liquid dish neat product liquid-air partition coefficient greater than or equal to 7)
CCC(C)(C)C1CCC(O)CC1 (stereo not shown) [Material 995],Comment Code: Log of liquid dish neat product liquid-air partition coefficient,K (Log of liquid dish neat product liquid-air partition coefficient greater than or equal to 7)
CCC=CCC=CC=CC(=O)OCC [Material 1000],Log of liquid dish neat product liquid-air partition coefficient (Comment Code),K (Log of liquid dish neat product liquid-air partition coefficient greater than or equal to 7)
CC(=O)CCc1ccc(O)cc1 [Material 1002],Comment Code: Log of liquid dish neat product liquid-air partition coefficient,K (Log of liquid dish neat product liquid-air partition coefficient greater than or equal to 7)
CC1CC(C)(C)OC(Cc2ccccc2)O1 (stereo not shown) [Material 1003],Log of liquid dish neat product liquid-air partition coefficient (Comment Code),K (Log of liquid dish neat product liquid-air partition coefficient greater than or equal to 7)
CC1CC(C)(c2ccccc2)CO1 (stereo not shown) [Material 1006],Log of liquid dish neat product liquid-air partition coefficient (Comment Code),K (Log of liquid dish neat product liquid-air partition coefficient greater than or equal to 7)
CC1=CC[C@@H]2C3CC([C@@H]2C1)[C@@]1(C3)OC1C (stereo partly shown) [Material 1007],Comment Code: Log of liquid dish neat product liquid-air partition coefficient,K (Log of liquid dish neat product liquid-air partition coefficient greater than or equal to 7)
same,Log of liquid dish neat product liquid-air partition coefficient (Comment Code),K (Log of liquid dish neat product liquid-air partition coefficient greater than or equal to 7)
